According to patent US20150105252A1, “SUBSTITUTED PYRAZOLES AS HERBICIDES” (E I DU PONT DE NEMOURS AND COMPANY, priority 2013, published 2015):

Assays:
Assay in all cases: Test C postemergence
foxtail, giant = type: in vivo, Setaria faberii
How it was run: (§1)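 In this greenhouse assay, seeded soil (loam plus sand) or emerged seedlings in peat-vermiculite medium were treated with formulated compound. Roughly two weeks later (13–15 days), each species was scored visually relative to controls, from 0 for no effect to 100 for complete control.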

johnsongrass = type: in vivo, Sorghum halepense
How it was run: as §1

ragweed = type: in vivo, Ambrosia elation
How it was run: as §1

kochia = type: in vivo, Kochia scoparia
How it was run: as §1

oilseed rape = type: in vivo, Brassica napus
How it was run: as §1

pigweed = type: in vivo, Amaranthus retroflexus
How it was run: as §1

soybean = type: in vivo, Glycine max
How it was run: as §1

morningglory = type: in vivo, Ipomoea coccinea
How it was run: as §1

wheat = type: in vivo, Triticum aestivum
How it was run: as §1

waterhemp = type: in vivo, Amaranthus rudis
How it was run: as §1

oat, wild = type: in vivo, Avena fatua
How it was run: as §1

blackgrass = type: in vivo, Alopecurus myosuroides
How it was run: as §1

barnyardgrass = type: in vivo, Echinochloa crus-galli
How it was run: as §1

nutsedge, yellow = type: in vivo, Cyperus esculentus
How it was run: as §1

lambsquarters = type: in vivo, Chenopodium album
How it was run: as §1

ryegrass, Italian = type: in vivo, Lolium multiflorum
How it was run: as §1

chickweed = type: in vivo, Stellaria media
How it was run: as §1

[1] = Postemergence, 31 g ai/ha, visually evaluated after 13 to 15 days
[2] = postemergence, 62 g ai/ha, scale 0 to 100
[3] = postemergence, 125 g ai/ha, scale 0 to 100, 0 no effect, 100 complete control

For `CCc1cc(C(=O)NOC(C)C)nn1Cc1ccnc(C(F)(F)F)c1` [Compound 101], the “Plant response rating (scale of 0 to 100), Foxtail, Giant” value (foxtail, giant; Postemergence, 16 g ai/ha) was 10, the “Plant response rating (scale of 0 to 100 where 0 is no effect and 100 is complete control), Foxtail, Giant” value (foxtail, giant; [1]) was 10 and the “Foxtail, Giant plant response rating” value (foxtail, giant; [2]) was 30. For the same molecule, the “Plant response rating, Foxtail, Giant” value (foxtail, giant; [3]) was 65, the “Plant response rating (scale of 0 to 100), Johnsongrass” value (johnsongrass; Postemergence, 16 g ai/ha) was 0 and the “Plant response rating (scale of 0 to 100 where 0 is no effect and 100 is complete control), Johnsongrass” value (johnsongrass; [1]) was 5. The “Johnsongrass plant response rating” value (johnsongrass; [2]) was 5, the “Plant response rating, Johnsongrass” value (johnsongrass; [3]) was 5 and the “Plant response rating (scale of 0 to 100), Ragweed” value (ragweed; Postemergence, 16 g ai/ha) was 15. For the same molecule, the “Plant response rating (scale of 0 to 100 where 0 is no effect and 100 is complete control), Ragweed” value (ragweed; [1]) was 15, the “Ragweed plant response rating” value (ragweed; [2]) was 20 and the “Plant response rating, Ragweed” value (ragweed; [3]) was 75. The “Plant response rating (scale of 0 to 100), Kochia” value (kochia; Postemergence, 16 g ai/ha) was 40, the “Plant response rating (scale of 0 to 100 where 0 is no effect and 100 is complete control), Kochia” value (kochia; [1]) was 60 and the “Kochia plant response rating” value (kochia; [2]) was 65. For the same molecule, the “Plant response rating, Kochia” value (kochia; [3]) was 65, the “Plant response rating (scale of 0 to 100), Oilseed Rape” value (oilseed rape; Postemergence, 16 g ai/ha) was 5 and the “Plant response rating (scale of 0 to 100 where 0 is no effect and 100 is complete control), Oilseed Rape” value (oilseed rape; [1]) was 5. The “Oilseed Rape plant response rating” value (oilseed rape; [2]) was 5, the “Plant response rating, Oilseed Rape” value (oilseed rape; [3]) was 5 and the “Plant response rating (scale of 0 to 100), Pigweed” value (pigweed; Postemergence, 16 g ai/ha) was 20. The “Plant response rating (scale of 0 to 100 where 0 is no effect and 100 is complete control), Pigweed” value (pigweed; [1]) was 35, the “Pigweed plant response rating” value (pigweed; [2]) was 45 and the “Plant response rating, Pigweed” value (pigweed; [3]) was 75. For the same molecule, the “Plant response rating (scale of 0 to 100), Soybean” value (soybean; Postemergence, 16 g ai/ha) was 15, the “Plant response rating (scale of 0 to 100 where 0 is no effect and 100 is complete control), Soybean” value (soybean; [1]) was 20 and the “Soybean plant response rating” value (soybean; [2]) was 25. The “Plant response rating, Soybean” value (soybean; [3]) was 40, the “Plant response rating (scale of 0 to 100), Morningglory” value (morningglory; Postemergence, 16 g ai/ha) was 60 and the “Plant response rating (scale of 0 to 100 where 0 is no effect and 100 is complete control), Morningglory” value (morningglory; [1]) was 60. The “Morningglory plant response rating” value (morningglory; [2]) was 65, the “Plant response rating, Morningglory” value (morningglory; [3]) was 95 and the “Plant response rating (scale of 0 to 100), Wheat” value (wheat; Postemergence, 16 g ai/ha) was 0. The “Plant response rating (scale of 0 to 100 where 0 is no effect and 100 is complete control), Wheat” value (wheat; [1]) was 0, the “Wheat plant response rating” value (wheat; [2]) was 5 and the “Plant response rating, Wheat” value (wheat; [3]) was 5. The “Plant response rating (scale of 0 to 100), Waterhemp” value (waterhemp; Postemergence, 16 g ai/ha) was 10, the “Plant response rating (scale of 0 to 100 where 0 is no effect and 100 is complete control), Waterhemp” value (waterhemp; [1]) was 30 and the “Waterhemp plant response rating” value (waterhemp; [2]) was 35. For the same molecule, the “Plant response rating, Waterhemp” value (waterhemp; [3]) was 75, the “Plant response rating (scale of 0 to 100), Oat, Wild” value (oat, wild; Postemergence, 16 g ai/ha) was 0 and the “Plant response rating (scale of 0 to 100 where 0 is no effect and 100 is complete control), Oat, Wild” value (oat, wild; [1]) was 0. For the same molecule, the “Oat, Wild plant response rating” value (oat, wild; [2]) was 5, the “Plant response rating, Oat, Wild” value (oat, wild; [3]) was 10 and the “Plant response rating (scale of 0 to 100), Blackgrass” value (blackgrass; Postemergence, 16 g ai/ha) was 5. For the same molecule, the “Plant response rating (scale of 0 to 100 where 0 is no effect and 100 is complete control), Blackgrass” value (blackgrass; [1]) was 5, the “Blackgrass plant response rating” value (blackgrass; [2]) was 5 and the “Plant response rating, Blackgrass” value (blackgrass; [3]) was 15. The “Plant response rating (scale of 0 to 100), Barnyardgrass” value (barnyardgrass; Postemergence, 16 g ai/ha) was 5, the “Plant response rating (scale of 0 to 100 where 0 is no effect and 100 is complete control), Barnyardgrass” value (barnyardgrass; [1]) was 5 and the “Barnyardgrass plant response rating” value (barnyardgrass; [2]) was 5. For the same molecule, the “Plant response rating, Barnyardgrass” value (barnyardgrass; [3]) was 5, the “Plant response rating (scale of 0 to 100), Nutsedge, Yellow” value (nutsedge, yellow; Postemergence, 16 g ai/ha) was 5 and the “Plant response rating (scale of 0 to 100 where 0 is no effect and 100 is complete control), Nutsedge, Yellow” value (nutsedge, yellow; [1]) was 5. For the same molecule, the “Nutsedge, Yellow plant response rating” value (nutsedge, yellow; [2]) was 5, the “Plant response rating, Nutsedge, Yellow” value (nutsedge, yellow; [3]) was 40 and the “Plant response rating (scale of 0 to 100), Lambsquarters” value (lambsquarters; Postemergence, 16 g ai/ha) was 50. For the same molecule, the “Plant response rating (scale of 0 to 100 where 0 is no effect and 100 is complete control), Lambsquarters” value (lambsquarters; [1]) was 50, the “Lambsquarters plant response rating” value (lambsquarters; [2]) was 65 and the “Plant response rating, Lambsquarters” value (lambsquarters; [3]) was 75. The “Plant response rating (scale of 0 to 100), Ryegrass, Italian” value (ryegrass, Italian; Postemergence, 16 g ai/ha) was 5, the “Plant response rating (scale of 0 to 100 where 0 is no effect and 100 is complete control), Ryegrass, Italian” value (ryegrass, Italian; [1]) was 5 and the “Ryegrass, Italian plant response rating” value (ryegrass, Italian; [2]) was 5. For the same molecule, the “Plant response rating, Ryegrass, Italian” value (ryegrass, Italian; [3]) was 10, the “Plant response rating (scale of 0 to 100), Chickweed” value (chickweed; Postemergence, 16 g ai/ha) was 45 and the “Plant response rating (scale of 0 to 100 where 0 is no effect and 100 is complete control), Chickweed” value (chickweed; [1]) was 50. For the same molecule, the “Chickweed plant response rating” value (chickweed; [2]) was 50 and the “Plant response rating, Chickweed” value (chickweed; [3]) was 50.
